{
  "source": "patent US20130085469A1",
  "about": "“TAUROLIDINE FORMULATIONS AND DELIVERY: THERAPEUTIC TREATMENTS AND ANTIMICROBIAL PROTECTION AGAINST BACTERIAL BIOFILM FORMATION” (priority 2004, published 2013)",
  "key": {"[1]": {"details": "cited from earlier work"}, "Burkholderia cepacia": {"tested_on": "Burkholderia cepacia", "details": "delivered to the lung via a nebulizer; cited from earlier work"}, "[2]": {"details": "over several years at room temperature; cited from earlier work"}, "[3]": {"tested_on": "clinically significant bacterial strains and some important fungi", "details": "published test results; cited from earlier work"}, "bacteria [4]": {"tested_on": "bacteria", "details": "25 years of clinical use and many in-vitro tests; cited from earlier work"}, "[5]": {"details": "30 g/day infused; cited from earlier work"}, "bacteria [6]": {"tested_on": "bacteria", "details": "cited from earlier work"}, "[7]": {"tested_on": "Planktonic form of bacteria", "details": "cited from earlier work"}, "[8]": {"assay": "Pharmacokinetics, central blood values after IV dose", "format": "in vivo", "details": "human, corresponds to first time constant 0.3", "from_the_text": "(§1) FIG. 1 illustrates the clearance of a typical antibiotic in the blood stream. It is a typical power decay curve after drug administration. Table 3 lists important variables which determine the biocidal effect on bacteria in the blood stream. The 5 factors in the upper portion of the table define the characteristics for Vancomycin, a typical antibiotic, and the characteristics for Taurolidine. Lower in the table is the portion called Surrogate Markers. These markers are Pharmacokinetic/Pharmacodynamic (PK/PD) values calculated from the concentration profiles in the body for specifics sites and drugs to guide therapy. The derived parameters have been estimated for Vancomycin (see FIG. 1, which is average values defined in the drug label with data obtained from human trials). Taurolidine Markers have been obtained from various literature sources. The Markers are useful in predicting antimicrobial drug efficacy in infection eradication. Of course, the values of the PK/PD parameters must be for the specific bacteria causing the infection and for the specific body site.\nKinetic parameters from Steinbach et al.^28 and infusion data from Willatts et al.^27 were used for the calculation. Taurolidine diffuses rapidly and body water concentration is equivalent to the plasma water concentration. […]"}, "typical bacteria [9]": {"tested_on": "typical bacteria", "assay": "Minimum bactericidal concentration (MBC)", "format": "cell-based"}, "[10]": {"tested_on": "infection from HD catheters", "details": "2 controlled studies; cited from earlier work"}, "[11]": {"assay": "Diffusion through silicone rubber catheter wall", "format": "physicochemical", "details": "silicone rubber 2 mm ID, 0.5 mm wall, filled with water, 2% Taurolidine bath, UV-Vis", "procedure": "4. Taurolidine is a small molecule able to pass through human skin as well as through polymeric materials passively by diffusion which is driven by a concentration gradient. Experiments were conducted to determine if Taurolidine is able to diffuse through silicone rubber at a rate sufficient to achieve clinical significance. The experiment was conducted with a HD catheter-sized silicone rubber (i.e., 2 mm ID and 0.5 mm wall thickness). This was filled with water and capped off. It was immersed in a 2% Taurolidine bath. Within 3 days the inner volume equilibrated with the Taurolidine bath. The sensing instrument was a UV-Vis spectrometer."}, "typical bacteria [12]": {"tested_on": "typical bacteria", "details": "cited from earlier work"}, "[13]": {"tested_on": "resistant Burkholderia cepacia", "details": "isolates from adult cystic fibrosis patients; cited from earlier work"}, "[14]": {"details": "cited from earlier work", "remark": "listed apart in the source"}, "[15]": {"details": "in vivo; cited from earlier work"}, "[16]": {"assay": "Max tolerated dose and max potential delivery", "format": "in vivo", "details": "calculated in footnote a", "from_the_text": "as §1"}},
  "note": "Like-named read-outs stand apart in the source and are kept apart here.",
  "data": [
    {"smiles": "O=S1(=O)CCN(CN2CCS(=O)(=O)NC2)CN1", "note": "[Taurolidine, 4,4′ Methlyen-bis(tetrahydro-2H-1,4-thiadiazin-1,1dioxide)]", "values": [
      {"measurement": "Max Tolerated Dose", "setting": "[1]", "value": ">30", "unit": "g/day^27"},
      {"measurement": "reduction in bacterial load", "setting": "Burkholderia cepacia", "value": "failure to achieve a significant reduction in bacterial load in most patients"},
      {"measurement": "stability in powder or aqueous solution", "setting": "[2]", "value": "Taurolidine in powder or aqueous solution is stable"},
      {"measurement": "broad spectrum antimicrobial effect", "setting": "[3]", "value": "Effective against substantially all clinically significant"},
      {"measurement": "bacterial resistance", "setting": "bacteria [4]", "value": "1.", "unit": "No Bacterial Resistance"},
      {"measurement": "benefit of Taurolidine infusion in sepsis syndrome", "setting": "[5]", "value": "No benefits"},
      {"measurement": "decremental effect of Taurolidine infusion", "setting": "[5]", "value": "not shown any statistically significant decremental effect"},
      {"measurement": "concentration needed to show minimum effectiveness", "setting": "bacteria [6]", "value": "> 0.05", "unit": "%"},
      {"measurement": "lower end range for MIC", "setting": "bacteria [6]", "value": "approximately 0.5 mg/mL"},
      {"measurement": "exposure to achieve killing action", "setting": "[7]", "value": "Planktonic form of bacteria requires approximately 2 hours"},
      {"measurement": "half-life", "setting": "[8]", "value": "~2.3", "unit": "h"},
      {"measurement": "MBC relative to antibiotics", "setting": "typical bacteria [9]", "value": "Taurolidine has an approximate 1000 times higher"},
      {"measurement": "reduction in infection compared to conventional heparin lock", "setting": "[10]", "value": "~2 controlled studies resulted in approximately 95%"},
      {"measurement": "time for inner volume to equilibrate with the Taurolidine bath", "setting": "[11]", "value": "≤ 3", "unit": "days"},
      {"measurement": "MBC", "setting": "typical bacteria [12]", "value": "MBC than antibiotics. (i.e., MBC of 2 mg/ml vs. 2 ug/ml"},
      {"measurement": "in vitro response", "setting": "[13]", "value": "positive response"},
      {"measurement": "Peak Plasma Concentration (CP)", "setting": "[14]; cell adds: Not applicable for Taurolidine", "value": 150, "unit": "μg/ml^28"},
      {"measurement": "T1/2 (Drug Half Life in Blood)", "setting": "[14]; first value of 70/140, footnote b, time const 0.57", "value": "~70", "unit": "min"},
      {"measurement": "T1/2 (Drug Half Life in Blood)", "setting": "[14]; second value of 70/140, footnote b, first time constant 0.3", "value": "~140", "unit": "min"},
      {"measurement": "concentration producing pain in most tissue on contact", "setting": "[15]", "value": "≥ 10000", "unit": "µg/mL"},
      {"measurement": "pain on direct contact with most tissue", "setting": "[15]", "value": "Direct contact with most tissue causes intense pain"}
    ]},
    {"smiles": "CN[C@H](CC(C)C)C(=O)N[C@H]1C(=O)N[C@@H](CC(N)=O)C(=O)N[C@H]2C(=O)N[C@H]3C(=O)N[C@H](C(=O)N[C@H](C(=O)O)c4cc(O)cc(O)c4-c4cc3ccc4O)[C@H](O)c3ccc(c(Cl)c3)Oc3cc2cc(c3O[C@@H]2O[C@H](CO)[C@@H](O)[C@H](O)[C@H]2O[C@H]2C[C@](C)(N)[C@H](O)[C@H](C)O2)Oc2ccc(cc2Cl)[C@H]1O", "note": "[Vancomycin]", "values": [
      {"measurement": "Max Tolerated Dose", "setting": "[16]", "value": ">5 g/day (See footnote a)"},
      {"measurement": "MIC (Minimum Inhibitory Concentration)", "setting": "bacteria [6]", "value": "<4", "unit": "μg/mL^29"},
      {"measurement": "Peak Plasma Concentration (CP)", "setting": "[14]; average values from drug label, FIG. 1", "value": 50, "unit": "µg/mL"},
      {"measurement": "T1/2 (Drug Half Life in Blood)", "setting": "[14]", "value": "~7", "unit": "hours^30"}
    ]}
  ]
}
